According to BindingDB's records for patent US9556111 (UNIVERSITETET I OSLO, 2017):

Target: A-kinase anchor protein 7 isoform gamma (Human, UniProt Q9P0M2)
Experiment: Binding Assay
Protocol: Stable and optimal assay conditions were determined by cross-titrating GST-AKAP18δ and biotinylated PLB using 10 μg/ml glutathione acceptor beads and 10 μg/ml streptavidin donor beads in an AlphaScreen assay. The excitation wavelength was 680 nm, with the emission wavelength being 520-560 nm. Signal intensity in each well was registered and the optimal concentration to use was chosen to be the concentration prior to the peak of the signal.

A-kinase anchor protein 7 isoform gamma, sequence (Q9P0M2 whole entry, canonical isoform): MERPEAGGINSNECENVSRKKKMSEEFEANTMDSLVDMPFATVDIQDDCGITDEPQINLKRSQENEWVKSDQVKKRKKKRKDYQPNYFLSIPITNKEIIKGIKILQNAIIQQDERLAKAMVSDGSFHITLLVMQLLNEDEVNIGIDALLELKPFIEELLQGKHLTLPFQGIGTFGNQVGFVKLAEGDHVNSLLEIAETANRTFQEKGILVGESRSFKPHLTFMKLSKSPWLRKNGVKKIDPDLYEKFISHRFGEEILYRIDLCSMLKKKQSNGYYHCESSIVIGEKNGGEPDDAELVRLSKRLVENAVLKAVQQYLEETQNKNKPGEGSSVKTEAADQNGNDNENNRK

Cc1ccc(NC(=O)Nc2ccc(CN(Cc3ccc(NC(=O)Nc4ccc(C)cc4)cc3)Cc3ccc(NC(=O)Nc4ccc(C)cc4)cc3)cc2)cc1 [US9556111, Table 1.20]
EC50: 5.2 µM
